Assays:
Mus musculus [1] = experiment: Pro-angiogenic activity in Balb/c mouse subcutaneously implanted 4 times with 10 ug/implant compound treated mouse EHS-derived matrigel assessed as FGF2-induced matrigel plug vascularization by measuring increase in hemoglobin level measured after 7 to 10 days by spectrophotometric analysis relative to control; type: functional
Mus musculus [2] = experiment: Antiangiogenic activity in Balb/c mouse subcutaneously implanted 4 times with 10 ug/implant compound treated mouse EHS-derived matrigel assessed as inhibition of FGF2-induced matrigel plug vascularization by measuring decrease in hemoglobin level measured after 7 to 10 days by spectrophotometric analysis relative to control; type: functional

Structure (SMILES)	fold change (FC) (Mus musculus [1])	inhibition (INH) (Mus musculus [2]) [%]
O=C(O)Cc1cc(I)c(Oc2ccc(O)cc2)c(I)c1	1.6	
N[C@@H](Cc1cc(I)c(Oc2ccc(O)c(I)c2)c(I)c1)C(=O)O [LIOTHYRONINE]	1.4	
O=C(O)Cc1cc(I)c(Oc2cc(I)c(O)c(I)c2)c(I)c1 [TETRAC]		50

From ChEMBL document CHEMBL3826906, “Synthesis of MR-49, a deiodinated analog of tetraiodothyroacetic acid (tetrac), as a novel pro-angiogenesis modulator” (2016)
